Patent US6417174B1, “Inhibitors of β-lactamases and uses therefor” (Northwestern University, priority 1997, dated 2002)
Read-outs that look alike come from different tables or passages of the source.

What was measured:
[1] = target: AmpC β-lactamase from E. coli (Escherichia coli, UniProt P00811); experiment: biochemical; assay type: biochemical
[2] = target: T1, TEM-1 β-lactamase from E. coli (Escherichia coli, UniProt P62593); experiment: Inhibition of TEM-1 β-lactamase, spectrophotometric assay (FAP substrate); assay type: biochemical
T1 construct: gift: Natalie Strynadka, University of Alberta
T1 sequence (P62593 24-286 limits assumed): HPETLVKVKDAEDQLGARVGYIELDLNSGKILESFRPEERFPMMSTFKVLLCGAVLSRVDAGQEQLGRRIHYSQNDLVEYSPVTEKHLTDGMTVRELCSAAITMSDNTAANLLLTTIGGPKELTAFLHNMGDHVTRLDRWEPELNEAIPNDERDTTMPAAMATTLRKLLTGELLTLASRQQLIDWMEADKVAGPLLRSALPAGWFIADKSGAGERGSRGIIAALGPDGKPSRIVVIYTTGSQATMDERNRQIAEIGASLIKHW

[3] = system: E. coli RYC1000 harboring plasmid pBGAmpC-MHN (AmpC β-lactamase of Enterobacter cloacae); experiment: microbe, parasite or virus in culture; assay type: cell-based, Escherichia coli; conditions: AmpC-MHN; for MIC of ceftazidime plus inhibitor: values in µg/ml
Method: (§1) After incubation, the growth of the cells was visually inspected. The minimum inhibitory concentration (MIC) is the lowest concentration where there no cell growth was observed.
(§2) The following strains were used: Enterobacter cloacae cell line with derepressed β-lactamase production (Ent-Der), and Escherichia coli RYC1000 (araD139 D lacU169 rpsL D rib7 thiA gyrA recA56) cell lines, harboring the plasmid pBGS19 (with no β-lactamase), or the β-lactamase containing plasmids pBGAmpC (AmpC β-lactamase from E. coli; Eco-AmpC), or pBGAmpC-MHN (AmpC β-lactamase from Enterobacter cloacae; Eco-AmpCEnt). […] TEM-10 and TEM-24 differ from TEM-1 due to the following point substitutions: TEM-10 (R164S, E240K); TEM-24 (L102K, L162S, S235T, A237K). TEM-10 and TEM-24 also differ from TEM-1 in being extended spectrum enzymes (i.e., they react with a greater range of substrates than TEM-1). Also tested were clinical isolates of Pseudomonas aeruginosa. All bacterial strains and plasmids are available from Jesus Blazquez and Fernando Baquero, Servicio de Microbiologia, Hospital Ramon y Cajal, National Institute of Health, Madrid, Spain.
(§3) Several ratios, including 1:1, 2:1, 4:1, and 1:3, of β-lactam antibiotic (amoxicillin (AX) or ceftazidime (CAZ)) to boronic acid compound were used in the assays. Tazobactam (TAZO), a clinically used β-lactamase inibitor, was used as a positive control.

[4] = system: E. coli RYC1000 harboring plasmid pBGS19 (no β-lactamase); experiment: microbe, parasite or virus in culture; assay type: cell-based, Escherichia coli; conditions: pBGS19
Method: as §1, §2, §3

[5] = system: E. coli RYC1000 harboring plasmid pBGTEM-24 (TEM-24 β-lactamase); experiment: microbe, parasite or virus in culture; assay type: cell-based, Escherichia coli; for MIC of ceftazidime plus inhibitor: values in µg/ml
Method: as §1, §2, §3

[6] = system: β-lactamase derepressed strain of Enterobacter cloacae (Ent-Der); experiment: microbe, parasite or virus in culture; assay type: cell-based; conditions: Ent. Der. For MIC of ceftazidime plus inhibitor: values in µg/ml.
Method: as §1, §2, §3

[7] = pH 7, read-out: Ki E. coli AmpC
[8] = Tables 2A/2B, pH 7.0, 25° C., 100 μM FAP, N.I. = no inhibition observed at an inhibitor concentration of 100 μM, read-out: Ki E. coli TEM-1
[9] = Tables 2A/2B, pH 7.0, 25° C., 100 μM cephalothin, read-out: Ki E. coli AmpC
[10] = Table 5, as described in Example 2, read-out: Ki AmpC
[11] = Table 3A, proportion 4/1, given as CAZ/inhibitor

AmpC β-lactamase from E. coli, sequence (P00811 20-377): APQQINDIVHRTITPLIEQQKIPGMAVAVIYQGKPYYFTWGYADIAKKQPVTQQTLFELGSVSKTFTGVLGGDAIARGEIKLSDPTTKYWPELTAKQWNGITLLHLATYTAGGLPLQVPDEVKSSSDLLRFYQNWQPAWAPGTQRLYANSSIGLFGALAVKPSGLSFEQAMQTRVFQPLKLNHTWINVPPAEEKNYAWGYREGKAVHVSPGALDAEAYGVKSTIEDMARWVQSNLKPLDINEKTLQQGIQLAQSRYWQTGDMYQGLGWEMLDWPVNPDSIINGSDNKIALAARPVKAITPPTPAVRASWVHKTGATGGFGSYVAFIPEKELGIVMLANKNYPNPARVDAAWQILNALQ

## OB(O)c1csc2ccccc12
[1]; read-out: Ki AmpC
  Ki: 0.78 ± 0.08 µM

## OB(O)c1ccc(C(F)(F)F)cc1 [4TFMB]
[1]; [7]
  Ki: 9 µM
[2]; [8]
  Ki: 6.3 µM

## OB(O)c1ccccc1 [2FDB, phenylboronic acid, reference compound]
[1]; [9]
  Ki: 8 µM
[2]
  Ki: > 100 µM

## OB(O)c1ccc2[nH]ccc2c1
[1]; [10]
  Ki: 10.9 ± 0.6 µM

## CCCCB(O)O [BUTB, Butylboronic acid]
[1]; [9]
  Ki: > 500 µM
[2]
  Ki: > 100 µM

## Cc1csc(B(O)O)c1
[1]; [10]
  Ki: 0.5 ± 0.05 µM

## OB(O)c1cccc(C(F)(F)F)c1 [3TFMB]
[1]
  Ki values (AmpC), range in words: one to two
[1]; [7]
  Ki: 1.6 µM
[2]; [8]
  Ki: 85 µM

## CN1C(=O)/C(=N\Nc2cccc(B(O)O)c2)c2ccccc2C1=O
[1]; [10]
  Ki: 0.075 µM

## Oc1ccc(N=Nc2ccc(Br)cc2)cc1B1OB(c2cc(N=Nc3ccc(Br)cc3)ccc2O)OB(c2cc(N=Nc3ccc(Br)cc3)ccc2O)O1 [4BPAPB, 2,4,6-tris(β-(4-bromophenylazo)-2-hydroxyphenyl) boroxin]
[1]; [7]
  Ki: 7.2 µM
[2]; [8]
  Ki: 1.2 µM
[3]; [11]
  MIC of ceftazidime plus inhibitor: 8/2
[3]; Table 3B
  MIC of inhibitor used alone without ceftazidime: 256 µg/mL
[4]; Table 3A, proportion 4/1
  MIC of ceftazidime plus inhibitor: <0.25 µg/mL
[4]; Table 3B
  MIC of inhibitor used alone without ceftazidime: 128 µg/mL
[5]; [11]
  MIC of ceftazidime plus inhibitor: 256/64
[5]; Table 3B
  MIC of inhibitor used alone without ceftazidime: 256 µg/mL
[6]; [11]
  MIC of ceftazidime plus inhibitor: 512/128
[6]; Table 3B
  MIC of inhibitor used alone without ceftazidime: >512 µg/mL

## O=C(O)/C=C/c1cccc(B(O)O)c1
[1]; [10]
  Ki: 5.9 ± 0.3 µM

## O=C(O)/C=C/c1ccc(B(O)O)cc1
[1]; [10]
  Ki: 4.2 ± 1.1 µM

## OB(c1ccccc1)c1ccccc1 [DFB, diphenylboronic acid]
[1]
  inhibition of AmpC (in words): lacks measurable inhibition
[1]; [9]
  Ki: > 500 µM
[2]; [8]
  Ki: > 100 µM

## O=Cc1ccsc1B(O)O [3FTH2B, 3-formylthiophene-2-boronic acid]
[1]; [9]
  Ki: 3.5 µM
[2]; Tables 2A/2B, pH 7.0, 25° C., 100 μM FAP, N.I. = no inhibition observed at an inhibitor concentration of 100 μM
  Ki E. coli TEM-1: N.I.

## OB(O)[C@H]1CCOC1 [(S)-3-tetrahydrofuranylboronic acid]
[1]; read-out: Ki for AmpC
  Ki: 15.8 ± 0.8 µM

## O=C1OC(=O)c2ccccc2/C1=N/Nc1cccc(B(O)O)c1
[1]; [10]
  Ki: 0.075 µM

## OB(O)c1cc2ccccc2o1 [BZBF2B, benzo[b]furan-2-boronic acid]
[1]
  activity relative to furan-2-boronic acid parent (AmpC): about 1000 fold
[1]; Ki E. coli AmpC
  Ki: 0.07 µM
[2]
  Ki: 8 µM
